According to patent publication US12673056B2, “Oral formulation comprising a crystalline form of rabeximod” (Cyxone AB, priority 2020, dated 2026):

Legend:
[1] = Particle size by laser diffractometry (Malvern Mastersizer) following micronisation; format: physicochemical; conditions: for Feed particles % <10 μm: before micronisation; for % <10 μm / D(0.1) / D(0.5) / D(0.9): result after micronisation
Text: In a still further embodiment the composition comprises rabeximod in the form of a dry powder, e.g. a micronized powder. The particle size distribution can be determined by means of laser diffractometry. In a preferred embodiment, a Malvern Instru-ments Mastersizer is used to determine the particle size distribution. Using a Malvern Mastersizer apparatus, volume-based size distribution parameters will typically be re-ported, e.g. in the form of the D10, D50 and D90 values. The average particle size (D50-value), which is also denoted D50-value of the integral volume distribution, is defined in the context of this invention as the particle diameter at which 50 percent by volume of the particles have a smaller diameter than the diameter which corresponds to the D50-value. Likewise, 50 percent by volume of the particles have a larger diameter than the D50-value. Analogously, the D90-value of the integral volume distribution is defined as the particle diameter at which 90 percent by volume of the particles have a smaller diameter than the diameter which corresponds to the D90-value. Corre-spondingly, the D10-value of the integral volume distribution is defined as the particle diameter at which 10 percent by volume of the particles have a smaller diameter than the diameter which corresponds to the D10-value. Typically, in accordance with the present invention, the Rabeximod (micronized) dry powder has a particle size characterized by a D10 within the range of 0.5-1.0 μm, a D50 within the range of 1.5-3.5 μm, and/or a D90 within the range of 5.5-9.9 μm, when measured using laser light diffractometry.
The micronisation operation is performed using a standard jet-mill. The set point for the particle size was that not less than 90% of the particles should be smaller than 10 μm. In-process samples were drawn and analyzed using a Malvern Mastersizer during the process to verify that a sufficient size reduction had been achieved (Malvern Mastersizer 2000 instrument, equipped with a Scirocco 2000(A) dispersion unit and a Micro Tray, operated at 2.5 bar, a feed rate of 60%, a measuring time of 5 seconds and a background time of 5 second; compliant with Ph.Fur method 2.9.31).
Results of the micronisation step in particle size is provided in Table 1 for Rabeximod drug substance batches.

healthy male volunteers = assay: Phase 1 clinical trial: safety, tolerability, pharmacokinetics of single and multiple oral rising doses; format: in vivo, human
Text: The Phase 1 study assessed the safety, tolerability, pharmacokinetics and pharmacodynamics of single and multiple oral rising doses of Rabeximod (in a capsule formulation as described in the preceding sections) in healthy male volunteers. The study also included an open-label, randomised, two-period crossover part that was designed to investigate the effect of food on the pharmacokinetics of Rabeximod. In total, 87 healthy male subjects were enrolled into the study.

[2] = test system: patients diagnosed with active RA; assay: Phase II clinical trial in combination with stable dose of methotrexate; format: in vivo, human
Method: A total of 225 patients diagnosed with active RA based on the American Rheu-matism Association (ARA) revised criteria were randomized to receive one of the following treatments: • 6.25 mg of Rabeximod (daily) • 15 mg of Rabeximod (daily) • 37.5 mg of Rabeximod (daily) • Placebo
Study drug was provided in the form of a capsule comprising micronized rabeximod, as described in the preceding sections. Placebo was provided in the form of a capsule identical in appearance to the study drug formulation. In all treatment groups patients were required to continue taking a stable dose of methotrexate. Over 200 patients completed the study. During the study, safety, efficacy and pharmaco-kinetic/pharmacodynamic properties of the study drug formulation were assessed with appropriate tests.

Row | Structure (SMILES) | Feed particles % <10 μm [1] [%] | % <10 μm [1] [%] | D(0.1) [1] [μm] | D(0.5) [1] [μm] | D(0.9) [1] [μm] | time plasma concentrations measurable post dose (healthy male volunteers; on average, following repeated once daily dosing (Day 14)) | increase of systemic exposure (AUC0-t) with dose (healthy male volunteers; repeated once daily administration) | increase of systemic exposure (AUC0-t) with dose (healthy male volunteers; single administration at 12.5 mg to 600 mg) | tolerability, higher doses (healthy male volunteers; single dose of 600 mg, and multiple dose of 600 mg loading followed by 100 mg) | tolerability, single doses (healthy male volunteers; single oral doses up to 400 mg) | tolerability, multiple oral doses (healthy male volunteers; up to a 200 mg loading dose followed by 50 mg maintenance dose) | most optimal treatment based on the efficacy and safety results ([2]; 15 mg daily) | effects for key secondary endpoints of treatment ([2]; 6.25, 15 or 37.5 mg daily with methotrexate, p<0.05) | predicted increase of AUC0-t and Cmax for a doubling in dose ([2]; Power Model, dose range 6.25 to 37.5 mg, patients with moderate or severe RA, on average) [fold] | kinetics with respect to time (accumulation in plasma consistent with t1/2) ([2]; repeated oral administration)
1 | Cc1cc2nc3c4cc(Cl)ccc4n(CC(=O)NCCN(C)C)c3nc2cc1C [146-32] | 41.9 | 98.1 | 0.7 | 2.2 | 8.2 |  |  |  |  |  |  |  |  |  | 
2 | Cc1cc2nc3c4cc(Cl)ccc4n(CC(=O)NCCN(C)C)c3nc2cc1C [262-1] | 29.0 | 94.5 | 0.7 | 2.2 | 8.4 |  |  |  |  |  |  |  |  |  | 
3 | Cc1cc2nc3c4cc(Cl)ccc4n(CC(=O)NCCN(C)C)c3nc2cc1C [262-2] | 32.6 | 92.6 | 0.7 | 2.2 | 7.6 |  |  |  |  |  |  |  |  |  | 
4 | Cc1cc2nc3c4cc(Cl)ccc4n(CC(=O)NCCN(C)C)c3nc2cc1C [Rabeximod, 9-Chloro-2,3-dimethyl-6-(N,N-dimethylaminoethylamino-2-oxoethyl)-6H-indolo-[2,3b]quinoxaline] |  |  |  |  |  | up to 168 hours | trend was also noted | approximately dose-proportional | less well tolerated due to phototoxicity reactions | well tolerated | well tolerated | most optimal | therapeutically meaningful and statistically significant | 2 | linear with respect to time
5 | Cc1cc2nc3c4cc(Cl)ccc4n(CC(=O)NCCN(C)C)c3nc2cc1C [compound 149] | 30.9 | 99.1 | 0.6 | 2.0 | 5.9 |  |  |  |  |  |  |  |  |  | 
6 | Cc1cc2nc3c4cc(Cl)ccc4n(CC(=O)NCCN(C)C)c3nc2cc1C [compound 153] | 32.7 | 99.1 | 0.6 | 1.9 | 5.7 |  |  |  |  |  |  |  |  |  | 
